Tests used:
A. alternata ICMP1099-96 = experiment: Inhibition of spore germination; type: cell-based, Alternaria alternata
[1] = tested on: S. cepivorum ICMP10916-91; experiment: Inhibition of spore germination; type: cell-based, Sclerotium cepivorum
R. solani ICMP11620 = type: cell-based, Rhizoctonia solani
[2] = Stability tests (absorbance at 428 nm in different testing solutions); type: physicochemical
Experimental: Stability was determined by re-suspending between 0.3 to 0.5 mg/mL of purified pigmented compound of Formula (IV) in different testing solutions according to Table 1, and measuring the absorbance at 428 nm every 24 hours for fifteen days. The test samples were kept in glass vials under constant incandescent light (except for the temperature stability test).

[3] = Radical scavenging ability; details: compared with ascorbic acid; data not shown
[4] = Phosphomolybdenum antioxidant assay; details: compared with ascorbic acid; data not shown
Candida utilis 02/D00981 = experiment: Agar diffusion assay, antimicrobial activity; type: cell-based; details: data not shown
[5] = tested on: Staphylococcus epidermis SVB-B12; experiment: Agar diffusion assay, antimicrobial activity; type: cell-based; details: data not shown
B. cinera ICMP16621 [6] = experiment: Agar diffusion assay, inhibition of mycelial growth; type: cell-based, Botrytis cinera; details: HPLC purified; YPD agar, 25° C., 5 days; data not shown
[7] = tested on: Pseudomonas aeruginosa SVB-B10; type: cell-based; details: agar diffusion; data not shown
[8] = tested on: S. sclerotiorum ICMP13844; experiment: Inhibition of spore germination; type: cell-based, Sclerotinia sclerotiorum
[9] = tested on: M. graminicola ICMP12504-95; type: cell-based, Mycosphaerella graminicola
Escherichia coli SVB-B11 = experiment: Agar diffusion assay, antimicrobial activity; type: cell-based; details: data not shown
[10] = Stability tests (absorbance at 428 nm in different testing solutions); type: physicochemical; details: after 10 days
[11] = FRAP (ferric reducing antioxidant power) assay; details: compared with ascorbic acid; data not shown
P. viticola ICMP5537 = experiment: Inhibition of spore germination; type: cell-based, Phomopsis viticola
Candida albicans SC5614 = experiment: Agar diffusion assay, antimicrobial activity; type: cell-based; details: data not shown
B. cinera ICMP16621 [12] = experiment: Inhibition of spore germination; type: cell-based, Botrytis cinera
M. grisea ICMP14481 = type: cell-based, Magnaporthe grisea
[13] = tested on: S. sclerotiorum ICMP13844; experiment: Agar diffusion assay, inhibition of mycelial growth; type: cell-based, Sclerotinia sclerotiorum; details: HPLC purified; YPD agar, 25° C., 5 days; data not shown
[14] = tested on: Saccharomyces cerevisiae BM45; experiment: Agar diffusion assay, antimicrobial activity; type: cell-based; details: data not shown
A. supraseptata SVB-F2 = experiment: Agar diffusion assay, inhibition of mycelial growth; type: cell-based, Apiognomonia supraseptata; details: HPLC purified; YPD agar, 25° C., 5 days; data not shown
[15] = tested on: V. inaequalis ICMP4095-96; experiment: Inhibition of spore germination; type: cell-based, Venturia inaequalis
Solubility = type: physicochemical; details: in water and polar organic solvents such as methanol, and ethanol
[16] = all three concentrations tested: 2.7, 1.3 and 0.7 mg·mL-1
[17] = Stability to common acids: Acetic acid
[18] = Stability to common acids: Malic acid
[19] = Stability to common alkalis: NaHCO3 10% w/w
[20] = Stability to microwave radiation: 5 min, domestic microwave (1000 W)
[21] = Stability to presence of sugars: Sucrose 10% w/w
[22] = Stability to temperature: 4° C. in methanol
[23] = Stability to temperature: 4° C. in water
[24] = Stability to temperature: 60° C. in methanol
[25] = Stability to temperature: 60° C. in water
[26] = Stability to temperature: 100° C. in water
[27] = Stability to temperature: −20° C. in methanol
[28] = Stability to temperature: −20° C. in water

## CCC(C)CC(C)/C=C(/C=C(C)/C=C/C=C/C=C/C=C/C=C/C=C/C1=C(C(=O)O)C2OOC(CO)C(O)C(O1)C2O)C(=O)O (single isomer, unassigned) [Compound 1, Epicoccaene]
A. alternata ICMP1099-96; [16]
  Inhibition of spore germination: completely inhibit
A. alternata ICMP1099-96; spore germination
  minimal inhibition dose (MID): below 0.7 mg/mL
[1]; [16]
  Inhibition of spore germination: completely inhibit
[1]; spore germination
  minimal inhibition dose (MID): below 0.7 mg/mL
R. solani ICMP11620
  minimal inhibition dose (MID): below 0.7 mg/mL
R. solani ICMP11620; [16]
  Inhibition of spore germination: completely inhibit
[2]
  Resistance to temperature and microwave radiation: resistant
[2]; [17]
  Initial absorbance (428 nm): 1.61
[2]; Stability to common acids: Citric acid
  Initial absorbance (428 nm): 1.53
[2]; Stability to common acids: Citric acid, after 10 days
  Final absorbance (428 nm): 0.51
[2]; Stability to common acids: Lactic acid
  Initial absorbance (428 nm): 1.52
[2]; Stability to common acids: Lactic acid, after 10 days
  Final absorbance (428 nm): 0.68
[2]; [18]
  Initial absorbance (428 nm): 1.53
[2]; Stability to common alkalis: Na2CO3 10% w/w
  Initial absorbance (428 nm): 2.13
[2]; Stability to common alkalis: Na2CO3 10% w/w, after 10 days
  Final absorbance (428 nm): 2.12
[2]; [19]
  Initial absorbance (428 nm): 2.08
[2]; Stability to common alkalis: NaOH 10% w/w
  Initial absorbance (428 nm): 2.05
[2]; Stability to common alkalis: NaOH 10% w/w, after 10 days
  Final absorbance (428 nm): 2.04
[2]; Stability to light: In ethanol 5% v/v
  Initial absorbance (428 nm): 2.04
[2]; Stability to light: In ethanol 5% v/v, after 10 days
  Final absorbance (428 nm): 2.04
[2]; Stability to light: In methanol
  Initial absorbance (428 nm): 2.04
[2]; Stability to light: In methanol, after 10 days
  Final absorbance (428 nm): 2.04
[2]; Stability to light: In water
  Initial absorbance (428 nm): 2.05
[2]; Stability to light: In water, after 10 days
  Final absorbance (428 nm): 1.82
[2]; [20]
  Final absorbance (428 nm): 2.04
  Initial absorbance (428 nm): 2.05
[2]; Stability to presence of sugars: Dextrose 10% w/w
  Initial absorbance (428 nm): 2.08
[2]; Stability to presence of sugars: Dextrose 10% w/w, after 10 days
  Final absorbance (428 nm): 2.08
[2]; Stability to presence of sugars: Fructose 10% w/w
  Initial absorbance (428 nm): 2.02
[2]; Stability to presence of sugars: Fructose 10% w/w, after 10 days
  Final absorbance (428 nm): 2.03
[2]; [21]
  Initial absorbance (428 nm): 2.08
[2]; [22]
  Final absorbance (428 nm): 2.03
  Initial absorbance (428 nm): 2.05
[2]; [23]
  Final absorbance (428 nm): 2.06
  Initial absorbance (428 nm): 2.08
[2]; [24]
  Final absorbance (428 nm): 2.04
  Initial absorbance (428 nm): 2.05
[2]; [25]
  Final absorbance (428 nm): 2.06
  Initial absorbance (428 nm): 2.08
[2]; [26]
  Final absorbance (428 nm): 2.07
  Initial absorbance (428 nm): 2.08
[2]; [27]
  Final absorbance (428 nm): 2.06
  Initial absorbance (428 nm): 2.05
[2]; [28]
  Final absorbance (428 nm): 2.07
  Initial absorbance (428 nm): 2.08
[2]; acidic conditions, colour changes from bright yellow to pale orange
  Stability under acidic conditions: unstable
[2]; dissolved in water at neutral pH
  Light sensitivity: moderate light sensitivity
[2]; in water at pH 8.0 or higher, in methanol or in sugar solutions (10% w/w)
  Resistance to light: resistance to light increased
[2]; organic acids (10% w/w)
  Degradation in solution of organic acids: pronounced degradation
[2]; pH stability, pH 3, after 10 days, constant incandescent light
  Final absorbance (428 nm): 1.45
[2]; pH stability, pH 3, constant incandescent light
  Initial absorbance (428 nm): 1.46
[2]; pH stability, pH 5, after 10 days, constant incandescent light
  Final absorbance (428 nm): 1.67
[2]; pH stability, pH 5, constant incandescent light
  Initial absorbance (428 nm): 1.67
[2]; pH stability, pH 7, after 10 days, constant incandescent light
  Final absorbance (428 nm): 2.05
[2]; pH stability, pH 7, constant incandescent light
  Initial absorbance (428 nm): 2.05
[2]; pH stability, pH 8, after 10 days, constant incandescent light
  Final absorbance (428 nm): 2.08
[2]; pH stability, pH 8, constant incandescent light
  Initial absorbance (428 nm): 2.09
[2]; pH stability, pH 10, after 10 days, constant incandescent light
  Final absorbance (428 nm): 2.09
[2]; pH stability, pH 10, constant incandescent light
  Initial absorbance (428 nm): 2.09
[3]
  Radical scavenging ability: comparable to those of ascorbic acid
[4]
  Antioxidant power by phosphomolybdenum assay: comparable to those of ascorbic acid
Candida utilis 02/D00981
  Antimicrobial activity: No antimicrobial activity
[5]
  Antimicrobial activity: No antimicrobial activity
B. cinera ICMP16621 [6]
  Activity against mycelial growth (zone of inhibition): strong activity
[7]
  Antimicrobial activity: No antimicrobial activity
[8]; [16]
  Inhibition of spore germination: completely inhibit
[8]; spore germination
  minimal inhibition dose (MID): below 0.7 mg/mL
[9]
  Inhibition of spore germination: resistant
Escherichia coli SVB-B11
  Antimicrobial activity: No antimicrobial activity
[10]; [17]
  Final absorbance (428 nm): 0.66
[10]; [18]
  Final absorbance (428 nm): 0.38
[10]; [19]
  Final absorbance (428 nm): 2.08
[10]; [21]
  Final absorbance (428 nm): 2.07
[11]
  Antioxidant power by FRAP: comparable to those of ascorbic acid
P. viticola ICMP5537; [16]
  Inhibition of spore germination: completely inhibit
P. viticola ICMP5537; spore germination
  minimal inhibition dose (MID): below 0.7 mg/mL
Candida albicans SC5614
  Antimicrobial activity: No antimicrobial activity
B. cinera ICMP16621 [12]; [16]
  Inhibition of spore germination: completely inhibit
B. cinera ICMP16621 [12]; incubation in rich culture medium for 10 days, data not shown
  Inhibition of spore germination: completely inhibit
B. cinera ICMP16621 [12]; spore germination
  minimal inhibition dose (MID): below 0.7 mg/mL
M. grisea ICMP14481; [16]
  Inhibition of spore germination: completely inhibit
M. grisea ICMP14481; spore germination
  minimal inhibition dose (MID): below 0.7 mg/mL
[13]
  Activity against mycelial growth (zone of inhibition): strong activity
[14]
  Antimicrobial activity: No antimicrobial activity
A. supraseptata SVB-F2
  Activity against mycelial growth (zone of inhibition): strong activity
[15]; [16]
  Inhibition of spore germination: completely inhibit
[15]; spore germination
  minimal inhibition dose (MID): below 0.7 mg/mL
Solubility
  Solubility: readily soluble

— patent publication US10477865B2, “Fungicidal compounds and methods of their use” (Auckland UniServices Limited, priority 2009, dated 2019)
